Measurements reported in patent US10759766B2, “Certain chemical entities, compositions, and methods” (NeuPharma, Inc., priority 2011, dated 2020).
pIC50: −log10 of the molar value.

How the values were obtained:
A549 cells = assay: Inhibition of cancer cell growth, MTT assay, A549; type: cell-based; conditions: Homo sapiens, A549, 72 h exposure
How it was run: (§1)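 IC50 derived from percent growth inhibition versus concentration, tested in triplicate. Growth inhibition came from MTT read at 570 nm after 72 h drug exposure, relative to viable cells at dosing. Cells (about 4000/well, RPMI 1640 + 10% FBS) adhered 24 h before treatment; final DMSO 1%.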

A375 cells = assay: Inhibition of cancer cell growth, MTT assay, A375; type: cell-based; conditions: Homo sapiens, A-375, 72 h exposure
How it was run: as §1

KDR (VEGFR2) = KDR (VEGFR2) (Homo sapiens (Human), UniProt P35968); assay: Z′-LYTE kinase inhibition assay (Invitrogen), KDR; type: biochemical; conditions: Z′-LYTE method; for inhibition at 1 µM: 1 μM compound, read-out: % inhibition at 1 μM against KDR
KDR (VEGFR2), sequence (P35968 20-1356): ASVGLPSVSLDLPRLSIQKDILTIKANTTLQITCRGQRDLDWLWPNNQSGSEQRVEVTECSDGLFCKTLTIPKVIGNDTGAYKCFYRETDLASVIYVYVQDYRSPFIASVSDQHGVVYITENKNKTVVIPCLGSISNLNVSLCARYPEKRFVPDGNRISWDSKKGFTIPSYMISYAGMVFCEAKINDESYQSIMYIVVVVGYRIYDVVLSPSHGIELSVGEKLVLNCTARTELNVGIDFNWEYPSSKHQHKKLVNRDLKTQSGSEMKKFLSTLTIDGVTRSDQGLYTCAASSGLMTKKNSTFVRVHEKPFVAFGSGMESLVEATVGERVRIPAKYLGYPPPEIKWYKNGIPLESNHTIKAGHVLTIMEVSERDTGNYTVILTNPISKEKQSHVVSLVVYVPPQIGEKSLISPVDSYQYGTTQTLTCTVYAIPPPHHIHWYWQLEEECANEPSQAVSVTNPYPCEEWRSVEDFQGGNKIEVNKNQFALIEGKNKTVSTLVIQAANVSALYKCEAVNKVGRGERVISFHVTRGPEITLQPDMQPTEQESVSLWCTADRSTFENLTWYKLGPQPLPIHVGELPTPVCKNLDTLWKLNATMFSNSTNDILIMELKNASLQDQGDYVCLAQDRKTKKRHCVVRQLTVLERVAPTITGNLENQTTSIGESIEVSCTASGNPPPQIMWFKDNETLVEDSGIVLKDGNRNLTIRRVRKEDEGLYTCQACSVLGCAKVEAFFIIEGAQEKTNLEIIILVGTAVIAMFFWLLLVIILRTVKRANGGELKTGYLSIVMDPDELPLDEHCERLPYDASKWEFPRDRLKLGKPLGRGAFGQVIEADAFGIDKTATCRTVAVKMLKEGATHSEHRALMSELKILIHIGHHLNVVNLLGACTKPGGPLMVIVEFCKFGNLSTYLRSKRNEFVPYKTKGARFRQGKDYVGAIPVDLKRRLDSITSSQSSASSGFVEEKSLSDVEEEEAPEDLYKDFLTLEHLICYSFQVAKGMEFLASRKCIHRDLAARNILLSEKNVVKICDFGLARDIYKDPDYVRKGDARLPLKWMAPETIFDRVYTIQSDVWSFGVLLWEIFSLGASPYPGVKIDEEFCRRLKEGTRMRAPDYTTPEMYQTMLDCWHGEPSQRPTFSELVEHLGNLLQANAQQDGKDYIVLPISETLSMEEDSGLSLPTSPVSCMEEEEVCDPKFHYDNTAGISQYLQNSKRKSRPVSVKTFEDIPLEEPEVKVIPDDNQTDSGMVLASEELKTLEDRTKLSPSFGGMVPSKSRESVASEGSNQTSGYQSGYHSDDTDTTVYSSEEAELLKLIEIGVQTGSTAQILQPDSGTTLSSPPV
How it was run: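 Z′-LYTE FRET assay: 10 μL reactions with 0.5–11.7 ng KDR and 2 μM Tyr 01 peptide in 50 mM HEPES pH 7.5, 10 mM MgCl2, 1 mM EGTA, 0.01% BRIJ-35, 1 h at room temperature. Development Reagent B (1:256) added for 60 min, fluorescence read; IC50 from concentration–inhibition curves.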

BRAF V600E = BRAF V600E (Homo sapiens (Human), UniProt P15056, V600E); assay: Z′-LYTE kinase inhibition assay (Invitrogen), BRAF V600E; type: biochemical; conditions: Z′-LYTE method; for inhibition at 1 µM: 1 μM compound, read-out: % inhibition at 1 μM against BRAF V600E
BRAF V600E, sequence (P15056 whole entry V600E): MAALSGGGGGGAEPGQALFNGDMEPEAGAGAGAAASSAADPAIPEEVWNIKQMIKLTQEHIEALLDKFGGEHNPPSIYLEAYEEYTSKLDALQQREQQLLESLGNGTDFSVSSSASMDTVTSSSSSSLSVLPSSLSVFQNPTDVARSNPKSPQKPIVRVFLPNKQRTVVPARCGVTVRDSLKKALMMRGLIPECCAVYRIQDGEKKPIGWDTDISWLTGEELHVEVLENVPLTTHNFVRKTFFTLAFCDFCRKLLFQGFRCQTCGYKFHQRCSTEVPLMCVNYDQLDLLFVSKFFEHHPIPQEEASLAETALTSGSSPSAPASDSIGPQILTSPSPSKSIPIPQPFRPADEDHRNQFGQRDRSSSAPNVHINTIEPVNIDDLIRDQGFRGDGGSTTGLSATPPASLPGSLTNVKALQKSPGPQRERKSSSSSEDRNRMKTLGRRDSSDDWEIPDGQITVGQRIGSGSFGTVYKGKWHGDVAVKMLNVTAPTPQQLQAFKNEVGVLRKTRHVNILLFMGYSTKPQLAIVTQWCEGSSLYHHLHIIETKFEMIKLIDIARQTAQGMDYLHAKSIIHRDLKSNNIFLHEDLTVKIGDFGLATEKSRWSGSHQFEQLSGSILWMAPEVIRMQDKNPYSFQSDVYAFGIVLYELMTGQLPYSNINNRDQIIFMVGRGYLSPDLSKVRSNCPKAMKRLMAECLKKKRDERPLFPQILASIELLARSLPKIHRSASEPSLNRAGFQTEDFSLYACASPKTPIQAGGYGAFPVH
How it was run: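 FRET-based Z′-LYTE peptide phosphorylation format in 50 mM HEPES pH 7.5, 0.01% BRIJ-35, 10 mM MgCl2, 1 mM EGTA with ATP. Kinase reaction 60 min at room temperature, then protease development step 60 min at room temperature before fluorescence read. IC50 from compound concentration versus percent inhibition.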

Row | SMILES | pIC50 (A549 cells) | pIC50 (A375 cells) | inhibition at 1 µM (KDR (VEGFR2)) [%] | inhibition at 1 µM (BRAF V600E) [%] | pIC50 (KDR (VEGFR2); read-out: IC50 against KDR) | pIC50 (BRAF V600E; read-out: IC50 against BRAF V600E)
1 | O=C(Nc1ccc(F)c(Cl)c1)Nc1ccc(F)c(C(=O)c2ccc3nccnc3c2)c1 [Compound C073, 1-(3-chloro-4-fluorophenyl)-3-(4-fluoro-3-(quinoxaline-6-carbonyl)phenyl)urea] | < 5.30 | 5.30 to 6.00 | > 89 | > 89 |  | 
2 | O=C(Nc1cccc(C(F)(F)F)c1)Nc1cc(F)c(F)c(C(=O)c2ccc3ncc(N4CCOCC4)nc3c2)c1F [Compound C034, 1-(2,4,5-trifluoro-3-(3-morpholinoquinoxaline-6-carbonyl)phenyl)-3-(3-(trifluoromethyl)phenyl)urea] | 5.30 to 5.70 | 5.30 to 6.00 | < 70 | < 70 |  | 
3 | O=C(Nc1cc(F)cc(C(=O)c2ccc3nccnc3c2)c1)Nc1cccc(C(F)(F)F)c1 [Compound C027, 1-(3-fluoro-5-(quinoxaline-6-carbonyl)phenyl)-3-(3-(trifluoromethyl)phenyl)urea] | > 5.70 | < 5.30 | 70 to 89 | > 89 |  | 
4 | O=C(Nc1ccc(Cl)cc1)Nc1ccc(F)c(C(=O)c2ccc3ncc(N4CCOCC4)nc3c2)c1 [Compound C054, 1-(4-chlorophenyl)-3-(4-fluoro-3-(3-morpholinoquinoxaline-6-carbonyl)phenyl)urea] | > 5.70 | > 6.00 | > 89 | > 89 |  | 
5 | O=C(Nc1ccc(Cl)c(C(F)(F)F)c1)Nc1ccc(F)c(C(=O)c2ccc3nccnc3c2)c1F [Compound C012, 1-(4-chloro-3-(trifluoromethyl)phenyl)-3-(2,4-difluoro-3-(quinoxaline-6-carbonyl)phenyl)urea] | > 5.70 | 5.30 to 6.00 | < 70 | < 70 |  | 
6 | O=C(Nc1cccc(F)c1)Nc1cccc(C(=O)c2ccc3ncc(N4CCOCC4)nc3c2)c1 [Compound C016, 1-(3-fluorophenyl)-3-(3-(3-morpholinoquinoxaline-6-carbonyl)phenyl)urea] | < 5.30 | < 5.30 | 70 to 89 | > 89 | < 7.00 | > 7.00
7 | O=C(Nc1ccc(F)cc1)Nc1ccc(F)c(C(=O)c2ccc3nccnc3c2)c1 [Compound C070, 1-(4-fluoro-3-(quinoxaline-6-carbonyl)phenyl)-3-(4-fluorophenyl)urea] | < 5.30 | 5.30 to 6.00 | > 89 | > 89 |  | 
8 | O=C(Nc1cc(F)cc(Cl)c1)Nc1cc(F)cc(C(=O)c2ccc3ncc(N4CCOCC4)nc3c2)c1 [Compound C060, 1-(3-chloro-5-fluorophenyl)-3-(3-fluoro-5-(3-morpholinoquinoxaline-6-carbonyl)phenyl)urea] | 5.30 to 5.70 | 5.30 to 6.00 | < 70 | > 89 |  | 
9 | O=C(Nc1cc(F)cc(C(=O)c2ccc3ncc(N4CCOCC4)nc3c2)c1)Nc1ccc(Cl)c(F)c1 [Compound C051, 1-(4-chloro-3-fluorophenyl)-3-(3-fluoro-5-(3-morpholinoquinoxaline-6-carbonyl)phenyl)urea] | 5.30 to 5.70 | 5.30 to 6.00 | < 70 | > 89 |  | 
10 | O=C(Nc1ccc(C(F)(F)F)cc1)Nc1cc(F)cc(C(=O)c2ccc3ncc(N4CCOCC4)nc3c2)c1 [Compound C048, 1-(3-fluoro-5-(3-morpholinoquinoxaline-6-carbonyl)phenyl)-3-(4-(trifluoromethyl)phenyl)urea] | 5.30 to 5.70 | > 6.00 | < 70 | > 89 |  | 
11 | O=C(Nc1ccc(Cl)c(Cl)c1)Nc1ccc(F)c(C(=O)c2ccc3ncc(N4CCOCC4)nc3c2)c1 [Compound C058, 1-(3,4-dichlorophenyl)-3-(4-fluoro-3-(3-morpholinoquinoxaline-6-carbonyl)phenyl)urea] | > 5.70 | > 6.00 | > 89 | > 89 |  | 
12 | O=C(Nc1cc(F)c(F)c(C(=O)c2ccc3nccnc3c2)c1)c1cccc(F)c1 [Compound C131, N-(3,4-difluoro-5-(quinoxaline-6-carbonyl)phenyl)-3-fluorobenzamide] | < 5.30 | < 5.30 | < 70 | > 89 |  | 
13 | O=C(Nc1ccc(C(F)(F)F)cc1)Nc1cc(F)cc(C(=O)c2ccc3nccnc3c2)c1 [Compound C066, 1-(3-fluoro-5-(quinoxaline-6-carbonyl)phenyl)-3-(4-(trifluoromethyl)phenyl)urea] | 5.30 to 5.70 | 5.30 to 6.00 | < 70 | > 89 |  | 
14 | O=C(Nc1cc(F)cc(C(=O)c2ccc3ncc(N4CCOCC4)nc3c2)c1)Nc1ccc(F)c(F)c1 [Compound C049, 1-(3,4-difluorophenyl)-3-(3-fluoro-5-(3-morphlinoquinoxaline-6-carbonyl)phenyl)urea] | 5.30 to 5.70 | 5.30 to 6.00 | < 70 | > 89 |  | 
15 | O=C(Nc1ccc(Cl)c(F)c1)Nc1ccc(F)c(C(=O)c2ccc3nccnc3c2)c1 [Compound C077, 1-(4-chloro-3-fluorophenyl)-3-(4-fluoro-3-(quinoxaline-6-carbonyl)phenyl)urea] | < 5.30 | 5.30 to 6.00 | < 70 | > 89 |  | 
16 | O=C(Nc1cccc(F)c1)Nc1cc(F)cc(C(=O)c2ccc3nccnc3c2)c1 [Compound C025, 1-(3-fluoro-5-(quinoxaline-6-carbonyl)phenyl)-3-(3-fluorophenyl)urea] | < 5.30 | < 5.30 | < 70 | > 89 |  | 
17 | Cn1cc(-c2cnc3ccc(C(=O)c4cccc(NC(=O)c5ccc(Cl)c(C(F)(F)F)c5)c4)cc3n2)cn1 [Compound C130, 4-chloro-N-(3-(3-(1-methyl-1H-pyrazol-4-yl)quinoxaline-6-carbonyl)phenyl)-3-(trifluoromethyl)benzamide] | > 5.70 | 5.30 to 6.00 | > 89 | > 89 |  | 
18 | O=C(Nc1ccc(C(F)(F)F)cc1)Nc1ccc(F)c(C(=O)c2ccc3ncc(N4CCOCC4)nc3c2)c1 [Compound C057, 1-(4-fluoro-3-(3-morpholinoquinoxaline-6-carbonyl)phenyl)-3-(4-(trifluoromethyl)phenyl)urea] | > 5.70 | > 6.00 | > 89 | > 89 |  | 
19 | O=C(Nc1cc(F)c(F)c(C(=O)c2ccc3ncc(N4CCOCC4)nc3c2)c1F)c1cccc(F)c1 [Compound C137, 3-fluoro-N-(2,4,5-trifluoro-3-(3-morpholinoquinoxaline-6-carbonyl)phenyl)benzamide] | < 5.30 | < 5.30 | 70 to 89 | 70 to 89 |  | 
20 | O=C(Nc1ccc(F)c(C(=O)c2ccc3nccnc3c2)c1F)c1cccc(F)c1 [Compound C113, N-(2,4-difluoro-3-(quinoxaline-6-carbonyl)phenyl)-3-fluorobenzamide] | < 5.30 | < 5.30 | < 70 | 70 to 89 |  | 
21 | O=C(Nc1cc(F)cc(C(=O)c2ccc3ncc(N4CCOCC4)nc3c2)c1)c1cccc(F)c1 [Compound C142, 3-fluoro-N-(3-fluoro-5-(3-morpholinoquinoxaline-6-carbonyl)phenyl)benzamide] | 5.30 to 5.70 | 5.30 to 6.00 | 70 to 89 | 70 to 89 |  | 
22 | O=C(Nc1cc(F)cc(C(=O)c2ccc3ncc(N4CCOCC4)nc3c2)c1)Nc1ccc(F)c(Cl)c1 [Compound C044, 1-(3-chloro-4-fluorophenyl)-3-(3-fluoro-5-(3-morpholinoquinoxaline-6-carbonyl)phenyl)urea] | 5.30 to 5.70 | 5.30 to 6.00 | 70 to 89 | > 89 |  | 
23 | O=C(Nc1ccc(C(F)(F)F)cc1)Nc1ccc(F)c(C(=O)c2ccc3nccnc3c2)c1 [Compound C075, 1-(4-fluoro-3-(quinoxaline-6-carbonyl)phenyl)-3-(4-(trifluoromethyl)phenyl)urea] | > 5.70 | > 6.00 | < 70 | > 89 |  | 
